In US9539298B2, “Lissencephaly therapeutic agent” (OSAKA CITY UNIVERSITY, priority 2010, dated 2017):

Test system: LIS1 heterozygous mice (lissencephaly model mice)
Assay: Behavior analysis: Gait Analysis
Format: in vivo, mouse
Settings: 200 μg/g per day oral; for Swing-to-Stance Ratio: FIG. 13
Method: To conduct a behavior analysis experiment, wild-type mice and Lis1 (^+/−) heterozygous mice were divided into five groups (C group, M1 group, M2 group, M3 group, and M4 group). The details regarding the mice in each group are described below. CE-2 (CLEA Japan, Inc.) was used as mice feed. The wild-type mice and heterozygous mice used for this experiment were prepared in the same method as described in the above section “Preparation of LIS1 gene hetero-deficient mice (LIS1 heterozygous mice).”
M2 group: LIS1 heterozygous mice prepared as follows. SNJ-1945 was dissolved in dimethyl sulfoxide (Sigma, D-5879) at a concentration of 100 mg/ml, and administered to pregnant mice from Day 9.5 of the embryonic period (E9.5) in an amount of 200 μg per gram of maternal body weight per day. The administration was performed by adding SNJ-1945 to mice feed. During the postnatal period, the administration was continued in the same manner as in M3 group below. M3 group: LIS1 heterozygous mice prepared as follows. […]
By adding SNJ-1945 to the mice feed (CE-2, CLEA Japan, Inc.), SNJ-1945 was continuously administered to the mice so that the administration amount became 200 μg per gram of body weight per day through oral administration. For a behavior analysis experiment, 12 to 16 mice were grouped to be subjected to preliminary breeding in the behavior experiment facility for 1 to 2 weeks; thereafter, the behavior of the mice was analyzed at an age of about 9 to 12 weeks. After the behavior analysis experiment, a gene type was determined for all mice.
Statistical processing of experiment data of mice behavior analysis was conducted using Stat View (SAS institute) statistics software. ANOVA assay (analysis of variance between multiple groups) was conducted for all five groups, and a group with a risk rate (p value) of less than 5% (p<0.05) was determined to have a significant difference. […]

In the case of `COCCOCCOC(=O)N[C@@H](CC(C)C)C(=O)N[C@@H](Cc1ccccc1)C(=O)C(=O)NC1CC1` [compound 17, ((1S)-1-((((1S)-1-Benzyl-2,3-dioxo-3-(cyclopropylamino)propyl)amino)carbonyl)-3-methylbutyl)carbamic acid 5-methoxy-3-oxapentyl ester], the “% Swing” value (M2, M3 and M4 groups, FIG. 12) is reported as “there was no significant difference compared with C group”, the “Swing-to-Stance Ratio” value (M2 group (administration from E9.5)) is reported as “recovered to a level at which there was no significant difference with C group” and the “Swing-to-Stance Ratio” value (M3 and M4 groups (administration from birth / postnatal Day 10)) is reported as “closer to 1 than M1 group”.
